Experiment: Inhibition of HCV NS5B polymerase by RdRp-catalyzed elongation assay
Parameters: species or system Hepacivirus hominis

SMILES	IC50 [µM]
CCc1ccc(/C=C2\SC(NC(C(=O)O)c3ccc(Br)cc3)=NC2=O)o1 (stereo not drawn)	6
CCc1ccc(/C=C2\SC(NC(C(=O)O)c3ccc(C(F)(F)F)cc3)=NC2=O)o1 (stereo not drawn)	21
CCc1ccc(/C=C2\SC(NC(C(=O)O)c3ccc4ccccc4c3)=NC2=O)o1 (stereo not drawn)	14
CCc1ccc(/C=C2\SC(NC(C(=O)O)c3ccc(C)cc3C)=NC2=O)o1 (stereo not drawn)	12
CCc1ccc(/C=C2\SC(NC(C(=O)NO)c3ccc(Cl)cc3Cl)=NC2=O)o1 (stereo not drawn)	5.5
CCc1ccc(/C=C2\SC(NC(c3ccccc3)c3nn[nH]n3)=NC2=O)o1 (stereo not drawn)	19
CCc1ccc(/C=C2\SC(NC(C(=O)O)C3(C)CCCC3)=NC2=O)o1 (stereo not drawn)	> 100
CCc1ccc(/C=C2\SC(NC(C(=O)O)c3ccc(F)c(Cl)c3)=NC2=O)o1 (stereo not drawn)	24
CCc1ccc(/C=C2\SC(NC(c3ccc(C)cc3)c3nn[nH]n3)=NC2=O)o1 (stereo not drawn)	14
CCc1ccc(/C=C2\SC(NC(C(=O)O)c3ccc(C)cc3)=NC2=O)o1 (stereo not drawn)	11
CCc1ccc(/C=C2\SC(NC(Cc3ccccc3)C(=O)O)=NC2=O)o1 (stereo not drawn)	68
CCc1ccc(/C=C2\SC(NC(C(=O)O)c3ccc(Cl)cc3Cl)=NC2=O)o1 (stereo not drawn)	7.6
CCc1ccc(/C=C2\SC(N[C@H](C(=O)O)c3ccc(F)cc3)=NC2=O)o1 (stereo in doubt)	3
CCc1ccc(/C=C2\SC(N[C@H](CC(=O)O)c3ccc(C#N)cc3)=NC2=O)o1 (stereo in doubt)	> 100
CCc1ccc(/C=C2\SC(N[C@H](CC(=O)O)c3ccc(C)cc3)=NC2=O)o1 (stereo in doubt)	27
CCc1ccc(/C=C2\SC(N[C@H](C(=O)O)C3CCCCC3)=NC2=O)o1 (stereo in doubt)	25
CCc1ccc(/C=C2\SC(N[C@H](C(=O)O)c3ccccc3)=NC2=O)o1 (stereo in doubt)	55
CCc1ccc(/C=C2\SC(N[C@H](CC(=O)O)c3cccnc3)=NC2=O)o1 (stereo in doubt)	> 100
CCc1ccc(/C=C2\SC(N[C@H](CC(=O)O)c3ccccc3)=NC2=O)o1 (stereo in doubt)	59
CCc1ccc(/C=C2\SC(N[C@H](C(N)=O)c3ccc(F)cc3)=NC2=O)o1 (stereo in doubt)	16
CCc1ccc(/C=C2\SC(N[C@@H](CC(=O)O)c3ccc(Cl)cc3Cl)=NC2=O)o1 (stereo in doubt)	9
CCc1ccc(/C=C2\SC(N[C@H](CC(=O)O)c3ccc(Cl)cc3Cl)=NC2=O)o1 (stereo in doubt)	8.5
CCc1ccc(/C=C2\SC(N[C@H](C(=O)O)c3ccc(O)cc3)=NC2=O)o1 (stereo in doubt)	43
CCc1ccc(/C=C2\SC(N[C@H](CC(=O)O)c3ccc(Br)cc3)=NC2=O)o1 (stereo in doubt)	16.5
CCc1ccc(/C=C2\SC(N[C@H](Cc3nn[nH]n3)c3ccccc3)=NC2=O)o1 (stereo in doubt)	24
CCc1ccc(/C=C2\SC(N[C@@H](CC(=O)O)c3ccc(F)cc3)=NC2=O)o1 (stereo in doubt)	13
CCc1ccc(/C=C2\SC(N[C@H](CC(=O)O)c3ccc(F)cc3)=NC2=O)o1 (stereo in doubt)	44
CCc1ccc(/C=C2\SC(N[C@@H](C(=O)O)c3ccc(F)cc3)=NC2=O)o1 (stereo in doubt) [VALEANT]	50

Source: ChEMBL document CHEMBL1146262, “Novel thiazolones as HCV NS5B polymerase allosteric inhibitors: Further designs, SAR, and X-ray complex structure” (Bioorg Med Chem Lett, 2007)
